PMC3670040, “Structure of Lipid Kinase p110β/p85β Elucidates an Unusual SH2-Domain-Mediated Inhibitory Mechanism” (Molecular Cell, 2011)

What was measured:
p110β/p85β-nic = test: ATPase activity (ADP formation) in the absence of lipid substrate, Transcreener; format: biochemical, mouse; settings: absence of lipid substrate; 75 nM protein, 100 μM ATP; 5 μM GDC0941 or D913N mutation; Figure S3B
Experimental: (§1) Figure 1 Inhibition of p110β by p85-Type Regulatory Subunits and Activation of the Complexes by RTK Phosphopeptide (A) Domain organization of p110β and the regulatory subunits p85α, p85β, and p55γ. The color scheme for the domains is used for all figures, unless otherwise stated. […] The inhibition is released upon addition of the 10 μM PDGFR pY2. […] The y axis is expressed as a change in fluorescence polarization (ΔmP), which is obtained by subtracting the observed polarization for the construct at a given enzyme concentration from the maximum fluorescence polarization for that construct. The plateau in these assays arises due to the competitive nature of the ADP detection system, based on displacement of ADP-Alexa 633 tracer from the ADP^2-antibody by ADP generated during the PI3K assay (see Supplemental Experimental Procedures). All measurements were done in triplicates, and the error bars indicate the standard error of the mean (SEM). […]
The lipid kinase activity was determined using the Transcreener ADP2 FP Assay (BellBrook Labs, Madison, WI) according to manufacturer‟s specifications. This non-radioactive assay measures activity by quantitating the amount of ADP formed. The ADP formed by PI3K competes with fluorescent ADP tracer for binding to an anti-ADP antibody, thereby decreasing fluorescence polarization. […]

p110β = test: Transcreener ADP formation (fluorescence polarization), diC8-PIP2/POPS liposomes, mouse p110β complexes; format: biochemical; settings: absence of pY2; ADP formation; Figures 3A, 3B
Experimental: as §1
Figure 3 Mutation Y677A in p85β-cSH2 Releases Inhibitory Effect on p110β (A) Kinase activity (ADP formation) of p110β in a complex with p85β-icSH2-Y677A (Y677A-ic) compared to the wild-type complex (ic) in the absence and presence of 10 μM PDGFR pY2 (ADP formation on the y axis expressed as in Figure 1B). […]
The lipid kinase activity was determined using the Transcreener ADP2 FP Assay (BellBrook Labs, Madison, WI) according to manufacturer‟s specifications. This non-radioactive assay measures activity by quantitating the amount of ADP formed. The ADP formed by PI3K competes with fluorescent ADP tracer for binding to an anti-ADP antibody, thereby decreasing fluorescence polarization. Because of the competitive nature of this assay, the change in fluorescence polarization signal is not a linear function of enzyme activity, and a convenient measure of enzyme activity is the EC50, or the concentration of enzyme necessary to give half-maximal inhibition of labeled ADP binding to the antibody, for a given concentration of substrate and a fixed time of reaction at initial rate. […]

PKB = PKB phosphorylation in transfected HEK cells (Western blot); format: cell-based, human
Experimental: Figure 4 cSH2 Is Important for p110β Inhibition In Vitro and in Cells (A) Kinase activity of human p110β and icSH2 wild-type constructs from three human regulatory subunits (p85α, p85β, and p55γ) in the absence and presence of 10 μM PDGFR pY2 (y axis as in Figure 1B). EC50s for wild-type and icSH2 tyrosine mutants, in the absence and presence of 10 μM PDGF pY2, are shown. (B) Western blots of HEK cells transiently expressing wild-type and mutant human p110β/p85α. The membrane was probed with antibodies against PKB, pPKB (pSer473), myc (p110β), FLAG (p85α), and actin. Bar graphs show mean ± SEM (n = 3) of PKB phosphorylation level normalized to wild-type p110β/p85α (WT). The position of the three mutations is mapped on the p110β/p85β structure. TEXT PRINTED IN THE PICTURE: (A) p110β/p85α-ic: EC50 (nM): 3 | (A) p110β/p85α-ic+pY2: EC50 (nM): 0.3 | (A) p110β/p85β-ic: EC50 (nM): 1.2 | (A) p110β/p85β-ic+pY2: EC50 (nM): 0.3 | (A) p110β/p55γ-ic: EC50 (nM): 1.5 | (A) p110β/p55γ-ic+pY2: EC50 (nM): 0.3 | (A) p110β/p85α-ic-Y685A: EC50 (nM): 0.3 | (A) p110β/p85α-ic-Y685A+pY2: EC50 (nM): 0.3 | (A) p110β/p85β-ic-Y683A: EC50 (nM): 0.4 | (A) p110β/p85β-ic-Y683A+pY2: EC50 (nM): 0.3 | (A) p110β/p55γ-ic-Y419A: EC50 (nM): 0.2 | (A) p110β/p55γ-ic-Y419A+pY2: EC50 (nM): 0.2 […]
Figure S4, Related to Figure 4. Tyr-Mutation in cSH2 Activates PI3K Downstream […]
(A) Western blot of HEK cells over-expressing wild-type and mutant human p110β/p85α complexes. Protein kinase B (PKB) phosphorylation (pPKB) levels at residues Ser473 and Thr308 were quantified and normalized WT p110β/p85α (WT).
(B) Quantification of PtdIns(3,4,5)P3 levels in HEK cells over-expressing wild-type and mutant human p110β/p85α complexes. Phospholipids were extracted from cells and PtdIns(3,4,5)P3 and PtdIns(4,5)P2 levels were quantified by mass spectrometry.
PtdIns(3,4,5)P3 / […] for each construct for two separate experiments measured in duplicates. Error bars indicate SEM. […]
The PIP3 lipids produced in PI3K in vitro assays as described above were also measured by a mass-spectrometry based assay (Clark et al.). […]

CS(=O)(=O)N1CCN(Cc2cc3nc(-c4cccc5[nH]ncc45)nc(N4CCOCC4)c3s2)CC1 [GDC0941, 2-(1H-indazol-4-yl)-6-(4-methanesulfonyl-piperazin-1-ylmethyl)-4-morpholin-4-yl-thieno[3,2-d]pyrimidine]
inhibition of ATPase activity (p110β/p85β-nic): fully inhibited

nicSH2-Y677A: p110β complex with regulatory construct containing wild-type nSH2 but mutant cSH2-Y677A
basal activity versus wild-type complex (p110β): basal activity higher than the wild-type

p85α-Y685A: full-length human p85α-Y685A cotransfected with human wild-type p110β
increase in PKB phosphorylation relative to wild-type heterodimer (PKB; HEK293T cells cotransfected with human p110β and p85α mutant, pSer473 mean n = 3, Figures 4B and S4A): 2 fold

p110β/p85α-N564D: heterodimer carrying somatic p85α mutation N564D
phosphorylation of PKB Ser473 (PKB; HEK cells, Figure 4B, n = 3): increase in phosphorylation
phosphorylation of PKB Thr308 (PKB; HEK cells, Figure S4A): increase in phosphorylation
